Laboratory results: article PMC3376857 (2012)

Biological target: HDAC1 (Homo sapiens, UniProt Q13547)
Sequence (Q13547 whole entry): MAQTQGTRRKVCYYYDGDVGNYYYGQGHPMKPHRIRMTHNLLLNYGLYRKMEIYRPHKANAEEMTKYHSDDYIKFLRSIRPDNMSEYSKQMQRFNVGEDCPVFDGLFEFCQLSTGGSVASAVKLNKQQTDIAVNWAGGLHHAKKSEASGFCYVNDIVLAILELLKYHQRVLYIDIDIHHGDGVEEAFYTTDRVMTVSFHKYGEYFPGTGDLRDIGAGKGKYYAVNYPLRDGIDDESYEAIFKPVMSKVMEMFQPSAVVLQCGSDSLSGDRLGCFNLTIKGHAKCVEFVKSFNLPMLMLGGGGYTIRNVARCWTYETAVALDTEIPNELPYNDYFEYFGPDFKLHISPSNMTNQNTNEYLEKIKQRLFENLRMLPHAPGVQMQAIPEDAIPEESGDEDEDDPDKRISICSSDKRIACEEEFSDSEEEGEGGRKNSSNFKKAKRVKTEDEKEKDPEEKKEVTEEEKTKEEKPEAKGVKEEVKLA

## CC(/C=C/C(=O)NO)=C\[C@@H](C)C(=O)c1ccc(N(C)C)cc1 [TSA, trichostatin A]
  deacetylase assay with immunopurified Flag-HDAC1 and acetylated p53 protein: 1 µM
